Reference: the Biogen ADME set (Fang et al. 2023)
≈ marks a conversion by molar mass, not a printed value.

Conditions: for aqueous solubility: pH 6.8

Row | Compound | MDR1-MDCK efflux ratio | aqueous solubility | intrinsic clearance, human liver microsomes | intrinsic clearance, rat liver microsomes | fraction unbound, human plasma | fraction unbound, rat plasma
1 | COc1cccc(NC(=O)c2c([O-])n(-c3cccc(OC)c3)n[n+]2C)c1 | 0.637 | 0.19 µg/mL (≈ 0.536 µM) | – | – | – | –
2 | CN1CCCN(C(=O)Nc2cccc(OCC(F)F)n2)CC1 | – | – | ≤ 4.74 mL/min/kg | 191 mL/min/kg | – | –
3 | O=C(Nc1nccs1)[C@@H]1C[C@@H]2CCCC[C@@H]2N1C(=O)c1ccccc1 | 6.31 | – | 36.7 mL/min/kg | 498 mL/min/kg | – | –
4 | C/N=C(\NC#N)NCCSCc1nc[nH]c1C | – | 41.6 µg/mL (≈ 165 µM) | ≤ 4.74 mL/min/kg | ≤ 10.7 mL/min/kg | – | –
5 | O=C(CC1CCN(c2ncc(Cl)cn2)CC1)N1CCOCC1 | 0.764 | 51.2 µg/mL (≈ 158 µM) | ≤ 4.74 mL/min/kg | 46.9 mL/min/kg | – | –
6 | N#Cc1ccc(OC2CCNCC2)cc1 | – | – | ≤ 4.74 mL/min/kg | ≤ 10.7 mL/min/kg | – | –
7 | CCOc1ncccc1C(=O)Nc1sccc1C#N | – | 1.13 µg/mL (≈ 4.13 µM) | – | – | – | –
8 | CSCc1noc(COc2ccc(F)cc2F)n1 | – | 17.3 µg/mL (≈ 63.5 µM) | – | – | – | –
9 | Cc1noc(-c2ccccc2C(=O)O)n1 | – | 35.3 µg/mL (≈ 173 µM) | ≤ 4.74 mL/min/kg | ≤ 10.7 mL/min/kg | – | –
10 | c1ccc(-c2ccc(Cn3ccnc3-c3cc4n(n3)CCCNC4)cc2)cc1 | – | 4.59 µg/mL (≈ 12.4 µM) | 14.7 mL/min/kg | 399 mL/min/kg | – | –
11 | CCn1c(SC)nnc1C1CCN(C)CC1 | 7.45 | 41.2 µg/mL (≈ 171 µM) | ≤ 4.74 mL/min/kg | ≤ 10.7 mL/min/kg | – | –
12 | Cc1cc(C)c(NC(=O)c2cc(Cl)ccc2F)c(C)n1 | 0.756 | 62.8 µg/mL (≈ 215 µM) | 8.2 mL/min/kg | 40 mL/min/kg | – | –
13 | Cc1cc(OCc2cc(C#N)ccc2F)ccc1N | – | 25.4 µg/mL (≈ 99.2 µM) | – | – | – | –
14 | CC(=O)Nc1cccc(CN2CCCN(C(C)=O)c3ccccc32)c1 | 15.9 | 29.6 µg/mL (≈ 87.8 µM) | 139 mL/min/kg | 919 mL/min/kg | – | –
15 | N#CC1(C(=O)NCC2(C3CC3)CC2)CCCCC1 | 0.713 | – | 18.9 mL/min/kg | 1080 mL/min/kg | – | –
16 | OCC1CCCCN1Cc1ccc(-c2ccccc2)cc1 (configuration not stated) | 0.708 | 41.7 µg/mL (≈ 148 µM) | 20.6 mL/min/kg | 2220 mL/min/kg | 0.233 | 0.248
17 | Cc1nc(N)c2c(C(F)(F)F)cc(C3CCN(C(=O)Cc4ccc(F)cc4)CC3)nc2n1 | 28.5 | 59.6 µg/mL (≈ 133 µM) | 50.3 mL/min/kg | 874 mL/min/kg | – | –
18 | OCCn1cc(-c2ccc3c(c2)CC/C3=N\O)c(-c2ccncc2)n1 | 36.4 | 13.7 µg/mL (≈ 41 µM) | 9.21 mL/min/kg | 123 mL/min/kg | – | –
19 | CC(C)(C)n1ncc(OCc2ccc(OCCOCCO)nc2)c(Cl)c1=O | 4.55 | 32.5 µg/mL (≈ 81.7 µM) | 8.19 mL/min/kg | 88.1 mL/min/kg | – | –
20 | COc1ccccc1Oc1c(NS(=O)(=O)c2ccc(C(C)(C)C)cc2)nc(-c2ncccn2)nc1OCCO | 88.2 | – | 16 mL/min/kg | 71.8 mL/min/kg | – | –
21 | Cc1nc(Cl)cc(Nc2ccc3c(c2)N(C)C(=O)CO3)n1 | 0.746 | 30 µg/mL (≈ 98.5 µM) | 34.6 mL/min/kg | 63.2 mL/min/kg | – | –
22 | CC(=O)NC1CCN(Cc2cccc(-c3cccnc3)c2)CC1 | 13.6 | 25.8 µg/mL (≈ 83.4 µM) | 6.04 mL/min/kg | 42.3 mL/min/kg | – | –
23 | NC(=O)Cn1ccc(-c2ccccc2)n1 | 0.792 | 40.5 µg/mL (≈ 201 µM) | ≤ 4.74 mL/min/kg | ≤ 10.7 mL/min/kg | – | –
24 | Cc1c(C(=O)Nc2ccc(N3CCC(N4CCOCC4)CC3)c(C#N)c2)cnn1-c1ccc(Cl)cc1 | 11.5 | – | 80.7 mL/min/kg | 294 mL/min/kg | – | –
25 | CC[C@@H]1C(=O)N(C)c2cnc(-n3ccnc3-c3ccc(F)cc3)nc2N1c1ccn(C)n1 | 14.2 | – | 43.7 mL/min/kg | 413 mL/min/kg | – | –
26 | Cc1ccccc1CCNC(=O)N(Cc1cccnc1)C1CCN(C)CC1 | 55.7 | – | 20.4 mL/min/kg | 815 mL/min/kg | – | –
27 | O=C(CC[C@@H]1CCCN2CCCC[C@H]12)NCc1cnc2c(c1)CCC2 | 26.7 | – | ≤ 4.74 mL/min/kg | 286 mL/min/kg | – | –
28 | CC(=O)Nc1cccc(OC(=O)N2CCOCC2)c1 | 2.62 | 56.7 µg/mL (≈ 215 µM) | 7.54 mL/min/kg | ≤ 10.7 mL/min/kg | – | –
29 | CC(=O)NC1(c2ccc(F)cc2)CCN(Cc2ccc(OC3CCCC3)cc2)CC1 | – | 72.4 µg/mL (≈ 176 µM) | 24.8 mL/min/kg | 346 mL/min/kg | – | –
